Test results reported in patent US20230233671A1, “RNA MOLECULES” (Pfizer Inc., priority 2021, published 2023).

Assays:
VZV gE = assay: ICS assay of gE peptide-stimulated splenocytes from LAV-experienced C57BL/6 mice; assay type: in vivo; conditions: for IFN-γ+ CD4+ T cell: percentage within CD4+ T cells; for IFN-γ+ CD8+ T cell: percentage within CD8+ T cells; for gE-specific IFN-γ+ CD8+ T cell response induced or not: FIG. 26C; for gE-specific IFN-γ+ CD8+ T-cell response, increase after second/boost dose: FIG. 27B
Source text: Splenocytes were harvested from Balb/c mice on Day 34, (34 days after immunization, 6 days after boost) to assess gE-specific T cell responses induced. An Intracellular Cytokine Staining (ICS) assay was used to detect the presence of cytokines within CD4^+ or CD8^+ T cells following antigen peptide stimulation. ICS assay can detect multiple cytokines, including IFN-γ, produced in both CD4^+ and CD8^+ T cells following antigen peptide stimulation. During the ex vivo stimulation of splenocytes, reagents to block protein secretion are added to retain the synthesized cytokine to allow their detection by intracellular staining. Following stimulation, cells are stained for surface and intracellular markers to identify T cell types (CD3^+ cells for CD4 and CD8 T cells), activation markers (CD154/CD40L) and cytokines. CD4^+ T cells expressing IFN-γ, IL-2, TNFα and CD40L, and CD8^+ T cells expressing IFN-γ were assessed to evaluate gE-specific T cells.
2×10^6 splenocytes were stimulated with a 2 μg/mL gE peptide pool mix, a mix of 10 ng/ml phorbol myristate acetate (PMA) and 1 μg/mL ionomycin (positive control), or DMSO (negative control). BD GOLGISTOP™ and BD GOLGIPLUG™ were added to block protein secretion. Following incubation for 6 hours at 37° C., cells were stained for viability (10 min at 25° C.) and extracellular markers with directly labelled antibodies (20 min at 25° C.). Cells were fixed and permeabilized with BD CYTOFIX/CYTOPERM™ solution. Intracellular staining for cytokines (IFN-γ, IL-2, TNFα) and activation markers (CD154/CD40L) was performed in BD CYTOFIX/CYTOPERM™ solution (30 min at 25° C.). Cells were washed, resuspended in 2% FBS/PBS buffer and acquired on an LSRFORTESSA™. Data were analyzed by FlowJo 10.7.1. Results shown are background (media-DMSO) subtracted.
VZV RNA-LNP vaccines were tested for their ability to induce IgG and T cell responses in C57BL/6 mice. 15 mice per group were immunized in accordance with the schedule and specification in Table 11. Briefly, 10 or 15 mice per group were primed subcutaneously (SQ) on Day 0 with a live-attenuated varicella (LAV) vaccine (VARIVAX®, Merck) using a full human dose per mouse (1350 pfu), immunized intramuscularly (IM) on Day 35 day and boosted on Day 63. The “infection” with a LAV vaccine mimics exposure to VZV that humans receive when infected with VZV as children and develop chickenpox.
Mice immunized with SHINGRIX® received 1, 2.5, or 5 μg, corresponding to 1/50, 1/20, and 1/10 of the human clinical dose, respectively; mice immunized with gE_WT CO2 received 0.5 or 1 μg VZV RNA-LNP; mice immunized with ms5 CO1 received 0.5 or 1 ug VZV RNA-LNP; mice immunized with ms6 CO2 received 0.5 or 1 ug VZV RNA-LNP; and mice immunized with lyophilized gE_WT CO2 received 0.5 or 1 ug VZV RNA-LNP. Saline was administered on Day 35 and 63 to a negative control group. Sera was collected from mice on Day 35, 63 and 76 for characterization of VZV gE-binding IgG levels (LUMINEX® analyses). Spleens were harvested on Day 48 (13 days post dose 1 for selected groups) and Day 76 for cellular analysis (T cell and B cell responses).
Vaccine-induced T cell response was measured following ex vivo stimulation of splenocytes with gE peptide pool (2 μg/mL of each peptide) by ELISpot and Intracellular Cytokine Staining (ICS) assay (described herein). For ELISpot, the cytokine IFN-γ secreted by activated T cells were captured by an anti-IFN-γ antibody coated onto the polyvinylidene fluoride (PVDF) membrane of the well bottom on a microplate. The captured IFN-γ was developed into a spot by another non-competing biotinylated anti-IFN-γ secondary antibody followed by an enzymatic color reaction using streptavidin-alkaline phosphatase (ALP) conjugate and the substrate solution, nitro-blue tetrazolium and 5-bromo-4-chloro-3′-indolyphosphate (BCIP/NBT-plus) that yielded a dark purple precipitate or spot. […]

[1] = test system: human embryonic kidney (HEK) 293T cells; assay: In vitro expression (IVE) of VZV RNA-LNP vaccines in HEK 293T cells (FACS); assay type: cell-based; conditions: for VZV RNA-LNPs (293T cells) MFI: Table 8; for VZV RNA-LNPs (293T cells) EC50 (ng/well): Table 8, FIG. 15, input RNA vs percentage of gE-expressing cells, 24 hours
Protocol: In vitro expression (IVE) analyses were conducted to assess the potency of VZV RNA-LNP vaccines. RNA constructs were formulated into LNPs as previously described in Example 3, and a range of input VZV RNA-LNP quantities was transfected into human embryonic kidney (HEK) 293T cells for 24 hours at 37° C., 5% CO2. Transfected cells were washed with DPBS, detached from plate wells using ACCUTASE®, and rinsed with cold PBS. Cells were subjected to live/dead staining, fixation, and permeabilization prior to FACS staining. Fixed and permeabilized cells were incubated with an anti-gE primary antibody (1:1000) for 45 minutes at 2-8° C., washed twice with BD PERM/WASH™ buffer and incubated with a goat anti-human kappa-PE secondary antibody (1:1000) for 30 minutes at 2-8° C. Cells were washed twice with BD PERM/WASH™ buffer, resuspended in 1×FACS buffer, and analyzed on a BD LSRII to determine the proportion of cells expressing VZV gE for each VZV RNA-LNP input. A titration curve was created whereby input RNA quantities were plotted against the percentage of gE-expressing cells to determine the EC50 of each VZV RNA-LNP vaccine.

Vero cells = assay: VZV gE expression and subcellular localization in Vero cells transfected with VZV RNA constructs (imaging); assay type: cell-based, African green monkeys; conditions: Table 8; VZV gE RNA, see Example 2
Protocol: Expression of VZV RNA constructs were tested in transfected Vero cells, a kidney epithelial cell culture line derived from African green monkeys. Seeded Vero cells were transfected for 24 hours at 37° C., 5% CO2 with 10 ng, 25 ng, or 50 ng of RNA constructs (Table 5) using MESSENGERMAX™ in accordance with the manufacturer's instructions. Cells were washed three times with PBS+Ca/Mg, and fixed in 4% paraformaldehyde (PFA) for 20 minutes at 25° C. Cells were washed twice with 3% bovine serum albumin (BSA) in PBS+Ca/Mg. Primary and secondary staining antibodies were diluted in 0.1% saponin in goat serum. Cells were stained with a 1:1000 dilution of primary antibody for 1 hour at 37° C., washed three times with PBS+Ca/Mg, and incubated with secondary antibody (1:500) and CELLMASK™ (1:140,000) for 45 minutes at 37° C. Cells were then stained with Dapi (1:15,000-1:20,000) for 15 minutes at 25° C., and washed three times with PBS+Ca/Mg. Cells were analyzed for VZV gE expression and subcellular localization using an Opera PHENIX® Plus High-Content Screening System at 10× or 63× magnification.

[2] = Day 48 (13 days post dose 1), 1 μg IM Day 35
[3] = Day 76 (13 days post dose 2/boost), 1 μg IM Days 35 and 63
[4] = Day 76 (13 days post dose 2/boost)

| Substance | IFN-γ+ CD4+ T cell (VZV gE; [2]) | IFN-γ+ CD8+ T cell (VZV gE; [2]) | gE-specific IFN-γ+ CD8+ T cell response induced or not (VZV gE; Day 48 (13 days post dose 1)) | IFN-γ+ CD4+ T cell (VZV gE; [3]) | IFN-γ+ CD8+ T cell (VZV gE; [3]) | gE-specific IFN-γ+ CD8+ T-cell response, increase after second/boost dose (VZV gE; [4]) | VZV RNA-LNPs (293T cells) MFI [1] | VZV RNA-LNPs (293T cells) EC50 (ng/well) [1] | VZV RNA (Vero cells) MFI (Vero cells) |
| --- | --- | --- | --- | --- | --- | --- | --- | --- | --- |
| ms5 CO1: modRNA construct, ORF SEQ ID NO: 153, VZV gE with deletion of aa 582-623 | 0.47% | 0.05% | induced | 0.48% | 0.28% | robust increase | 543 | 14 ng/well | 1368 |
| ms6 CO2: modRNA construct, ORF SEQ ID NO: 157, VZV gE with deletion of aa 539-623, secreted | 0.09% | 0.16% | induced | 0.50% | 0.21% | robust increase | 162 | 220 ng/well | 458 |
